Assay results taken from patent publication US4150970A, “Growth regulator for plants” (Board of Trustees of Michigan State University, priority 1977, dated 1979).
Entries after “also recorded” stand apart in the source; their conditions may differ.

What was measured:
[1] = test system: IR-8 rice seedlings; assay: Growth and water uptake of IR-8 rice seedlings (Example IV); assay type: in vivo; conditions: for Dry Wt. per plant / Leaf Area per plant / Water Uptake per leaf area / Water Uptake per plant: 10 μg/liter
Method: (§1) Rice seed cv. IR-8, or Starbonnet was surface treated with 0.1 percent mercuric chloride and planted in 77 cc plastic cups containing vermiculite and watered with one-fourth Hoagland's nutrient solution containing 3 mM of nitrogen at pH 5.0. After 10 days, seedlings were transplanted to 220 cc specimen cups wrapped in aluminum foil and containing 180 cc of the same Hoagland's nutrient solution. Four seedlings were suspended in the solution with a sponge rubber disc. The plants were grown under a 8 h night at 25° C. and a 16 h day at 30° C. with 21 and 8 μwatts per cm^2 in the blue and red spectra respectively. In the test with varying light intensity the high light intensity was 30 13 and the low intensity was 15 and 8 μwatts per cm^2 for the blue and red spectra respectively. The nutrient solution was renewed every 2 or 3 days. After one week the plants were sorted for size and similar sized plants assigned to the same block for the experiment. Prior to the initiation of a test the plants in each cup were assigned treatment numbers by use of a random number table. […] Sixteen hours prior to a test the foil wrapped cups were tared, and filled with one-half Hoaglands solution containing 6 mM nitrogen. Eighteen μl of chloroform or chloroform containing 1.8 μg triacontanol were placed on 2 cm^2 of Whatman No. 1 filter papers, air dried and placed in the specimen cups. This concentration of 10 μg triacontanol/liter was used for all tests described in the following Examples except where specifically indicated to the contrary. Immediately prior to the test the cups were all brought up to 180 ml. including a set of cups without plants to measure evaporation.
Water uptake was measured by weighing the cups after removal of the plants and subtracting the tare and the water evaporated. For tests continued for more than one day, the solution used was measured every 3 days and new Hoagland's added and the pH maintained at 5.0 with sulfuric acid.
The plants were disected at harvest into shoots and roots. The expanded leaves were cut at the ligule and the newest leaf at the point it entered the sheath. The surface area of expanded leaves were measured using a Lambda Model LI-3000 planimeter. The plants were dried to constant weight in an oven at 100° C. and the roots, expanded leaves, and sheaths were weighed separately.
Four to 6 replicates were used in each experiment in a randomized complete block design. The data were submitted to analysis of variance. Means were compared by use of the L.S.D. except where there was only one degree of freedom for treatment. In these instances the F value from the analysis of variance was used for comparison of means.
To determine the effect of triacontanol on growth and water uptake of IR-8 rice seedlings, the seedlings were prepared as above explained. Alternate seedlings were treated with no triacontanol or with a concentration of 10 μg triacontanol per liter as above set forth. Leaf area, dry weight and water uptake were determined for each plant at 0 time and at 8, 24, 72 and 216 hour intervals.

[2] = test system: IR-8 rice seedlings; assay: Dry weight of rice seedlings in the dark with and without carbon dioxide (Example VII); assay type: in vivo
Method: as §1
In the tests comparing dry weight accumulation in plants grown either in the absence of CO2 or in normal air were grown as previously described except the test was initiated at the end of the 16 hour light period.
Plants were placed in 20×32 cm glass jars fitted with gas inlet and outlet ports. Three jars containing 2 cups each were used for a total of 24 plants for each treatment. The plants were ventilated with air or freed of CO2 by passing it through ascarite and then humidified. The flow rate was approximately 300 ml/minute. Carbon dioxide-free air was also used to purge the appropriate jars during a two minute period required to place the plants in the jars. The N analyses were done by the automated micro-Kjelldahl procedure of Ferrari (1960).
To determine the response of rice seedlings grown in the dark with and without carbon dioxide, 17 day old "IR-8" rice seedlings were grown in the dark for 6 hours. All the parameters of CO2 vs no CO2 and of triacontanol vs no triacontanol were run. The testing procedures were described above.

[3] = test system: IR-8 rice seedlings; assay: Total protein content of rice seedlings grown in the dark for six hours (Example VIII); assay type: in vivo
Method: as §1
Plants were placed in 20×32 cm glass jars fitted with gas inlet and outlet ports. Three jars containing 2 cups each were used for a total of 24 plants for each treatment. The plants were ventilated with air or freed of CO2 by passing it through ascarite and then humidified. The flow rate was approximately 300 ml/minute. […]
The total protein (nitrogen) content of 17 day old "IR-8" rice seedlings was determined, where […]

[4] = test system: field corn; assay: Foliar spray and soil drench on field corn (Example IX); assay type: in vivo; conditions: for % increase: dry weight
Method: To determine the effect of triacontanol methods of treatment, differing amounts of triacontanol were applied to field corn by foliar spray and by drenching the soil. The plants were twelve days old at the time of treatment, and the plants were harvested when forty-two days old.
0.01 mg/l triacontanol applied by soil drench corresponds to 0.4 grams pe
acre. 0.10 mg/l corresponds to 4 grams per acre.

[5] = test system: Potato callus cell culture; assay: Growth of potato callus cell culture (Example XIX); assay type: cell-based, Solanum tuberosum, var. adveria
Method: Cell cultures were separately grown in disposable petri dishes.
3. Potato (Solanum tuberosum, var. adveria)
The cultures were grown on the basic medium of mineral salts described by Linsmaier and Skoog (Physiol. Plant, […] (1965)). Vitamins and hormones varied for each tissue (Table X-1) to maintain the tissues in an undifferentiated state. For all of the tissues inositol was 100 mg/liter and agar 1%. Sucrose was 3% for all but the bean which was 2%.
Callus was produced from pith for tobacco, potato and tomato. Bean callus was produced from hypocotyl sections and barley callus from immature ovarian tissue. Subcultures were maintained on the appropriate media.
Stock solutions of triacontanol were prepared at a concentration of 100 μg/ml. The solvent used was glass distilled benzene. The lower concentrations were obtained by serial dilutions. Treatments were applied to 4.5 cm Whatman #1 filter paper disks in 100 μl aliquots. Controls received 100 μl of glass distilled benzene. The solvent was evaporated for approximately 15 minutes and the filter papers were then placed on the agar medium.
Callus tissue was then broken into pieces of approximately the same size (10 mg) and placed in the petri dishes on the treated filter paper (one piece per dish). For experiments conducted in the light the intensity was approximately 2.0 microwatts/cm^2 -namometer. Fresh weight measurements were made after 12 days of growth.

[6] = 10 μg per liter, nutrient solution
[7] = foliar spray, 0.01 mg/l (first line)
[8] = foliar spray, printed 0.01 mg/l (second line)
[9] = printed 10.0 g triacontanol, 12 days

CCCCCCCCCCCCCCCCCCCCCCCCCCCCCCO [Triacontanol, 1-triacontanol]
time within which dry weight of entire plant significantly increased [1, 6]: ≤ 3 days | time within which leaf area significantly increased [1, 6]: ≤ 8 h | Dry Wt. per plant ([1]; 8 hours): 53.4 mg | Leaf Area per plant ([1]; 8 hours): 8.2 cm^2 | Water Uptake per leaf area ([1]; 8 hours): 0.25 ml/cm^2 leaf area | Water Uptake per plant ([1]; 8 hours): 2.0 mL | Dry Wt. per plant ([1]; 24 hours): 58.6 mg | Leaf Area per plant ([1]; 24 hours): 9.0 cm^2 | Water Uptake per leaf area ([1]; 24 hours): 0.35 ml/cm^2 leaf area | Water Uptake per plant ([1]; 24 hours): 3.2 mL | Dry Wt. per plant ([1]; 72 hours): 81.7 mg | Leaf Area per plant ([1]; 72 hours): 13.7 cm^2 | Water Uptake per leaf area ([1]; 72 hours): 1.34 ml/cm^2 leaf area | Water Uptake per plant ([1]; 72 hours): 18.4 mL | Dry Wt. per plant ([1]; 216 hours): 204.0 mg | Leaf Area per plant ([1]; 216 hours): 22.4 cm^2 | Water Uptake per leaf area ([1]; 216 hours): 2.92 ml/cm^2 leaf area | Water Uptake per plant ([1]; 216 hours): 65.5 mL | CO2 fixation in the dark ([2]; dark 6 hours): stimulated rice seedlings to fix CO2 in the dark; also recorded: stimulates plants, such as rice seedlings, to fix CO2 in the dark | Dry Wt, Expanded leaves ([2]; with CO2, dark 6 hours): 26.7 mg/plant | Dry Wt, Roots ([2]; with CO2, dark 6 hours): 25.6 mg/plant | Dry Wt, Whole Plant ([2]; with CO2, dark 6 hours): 71.9 mg/plant | Dry Wt, Expanded leaves ([2]; without CO2, dark 6 hours): 22.4 mg/plant | Dry Wt, Roots ([2]; without CO2, dark 6 hours): 23.2 mg/plant | Dry Wt, Whole Plant ([2]; without CO2, dark 6 hours): 62.0 mg/plant | higher concentration of total protein in 4th leaf than the control [3]: 11% | total increase in protein per plant versus zero time [3]: 18% | total protein per (4th) leaf [3]: doubling | application rate for maximum effectiveness ([4]; corn seedlings): about 4 grams per acre | effective application rate ([4]; corn seedlings): about 0.4 grams per acre | Dry Weight [4, 7]: 408 mg/shoot | % increase [4, 7]: 22% | Dry Weight [4, 8]: 463 mg/shoot | % increase [4, 8]: 39% | Dry Weight ([4]; soil drench, 0.01 mg/l): 426 mg/shoot | % increase ([4]; soil drench, 0.01 mg/l): 22% | Dry Weight ([4]; soil drench, 0.10 mg/l): 519 mg/shoot | % increase ([4]; soil drench, 0.10 mg/l): 48% | growth of in vitro cell cultures ([5]; potato): significant increases in growth | % of control [5, 9]: 121 % of control | Fresh weight [5, 9]: 23.5
